“And” between values parts separate entries of the source, which are not always exact repeats. Equal values may be shown once. Read-outs that look alike come from different tables or passages of the source.
Assay: Plasma pharmacokinetics of Z-endoxifen (HPLC assay, non-compartmental analysis)
Type: in vivo, human
Protocol: This was an open-label trial of Z-endoxifen in patients with advanced solid tumors (https://clinicaltrials.gov/ identifier: NCT01273168). Z-endoxifen-HCl was supplied by the Pharmaceutical Management Branch, National Cancer Institute, as 20 and 40 mg capsules; agent was administered orally once daily on a continuous schedule in 28-day cycles with a starting dose of 20 mg/day taken either 1 hour before or 2 hours after meals. Dose escalation followed a traditional 3+3 design in which patients were dose-escalated to the next dose level (DL) in cohorts of 3 patients until dose-limiting toxicity (DLT) was observed. DLT was defined as an adverse event that occurred during cycle 1, was thought to be related to study drug administration, and met one of the following criteria: grade ≥ 3 non-hematologic toxicities (except diarrhea, nausea and vomiting, alopecia, rising creatinine or electrolyte toxicities that resolved within 24 hours, or intolerable estrogen withdrawal symptoms) or grade ≥ 3 hematologic toxicities (except neutropenia lasting less than 5 days, lymphopenia, or anemia). Eight dose levels (DL1-8) were examined: 20, 40, 60, 100, 140, 200, 280, and 360 mg, respectively. Two patients at DL8 received the free base form of Z-endoxifen on day 1 rather than the hydrochloride salt to assess the pharmacokinetics of that formulation.
A 3-mL blood sample was collected in a K2 EDTA tube on day 1 of cycle 1 before drug administration and at the following times post-first dose: 0.5, 1, 2, 3, 4, 6, 8, and 24 hours. Samples were collected at the same time points on day 28 of cycle 1 for DL1-6 until a protocol amendment eliminated the requirement for these samples at the higher dose levels. Samples were wrapped in aluminum foil after collection to protect from light exposure. A 10-mL aliquot of urine was collected before agent administration on cycle 1 day 1, for 24 hours after dosing on day 1, and before drug administration on cycle 2 day 1; samples were refrigerated prior to analysis.
Plasma and urine concentrations of Z- and E-endoxifen were measured using a validated, post-column fluorescence derivatization HPLC assay. Non-compartmental pharmacokinetic parameters were calculated using WinNonlin version 7.0 (Pharsight Corp., Mountainview, CA, USA). A 2 μM Cmax target was established for day 28 plasma concentration. The amount of Z-endoxifen excreted in urine was measured over a 24-hour collection period.

[1] = DL1 20 mg oral, day 1, individual patients, listed as Z-endoxifen HCl
[2] = DL1 20 mg/day oral, day 28, individual patients, listed as Z-endoxifen HCl
[3] = DL2 40 mg oral, day 1, individual patients, listed as Z-endoxifen HCl
[4] = DL2 40 mg/day oral, day 28, individual patients, listed as Z-endoxifen HCl
[5] = DL3 60 mg oral, day 1, individual patients, listed as Z-endoxifen HCl
[6] = DL3 60 mg/day oral, day 28, individual patients, listed as Z-endoxifen HCl
[7] = DL4 100 mg oral, day 1, individual patients, listed as Z-endoxifen HCl
[8] = DL5 140 mg oral, day 1, individual patients, listed as Z-endoxifen HCl
[9] = DL5 140 mg/day oral, day 28, individual patients, listed as Z-endoxifen HCl
[10] = DL6 200 mg oral, day 1, individual patients, listed as Z-endoxifen HCl
[11] = DL6 200 mg/day oral, day 28, individual patients, listed as Z-endoxifen HCl
[12] = DL7 280 mg oral, day 1, individual patients, listed as Z-endoxifen HCl
[13] = DL8 360 mg oral, day 1, individual patients, listed as Z-endoxifen HCl

CC/C(=C(\c1ccc(O)cc1)c1ccc(OCCNC)cc1)c1ccccc1 [Z-endoxifen]
AUC(0-24h) [1]: 1055 ng·h/mL and 1169 ng·h/mL
C24h [1]: 32.6 ng/mL and 32.7 ng/mL
Cmax [1]: 61.2 ng/mL and 67.7 ng/mL
AUC(0-24h) [2]: 4469 ng·h/mL and 5313 ng·h/mL
Adjusted Half-Life [2]: 61.8 h and 67.0 h
C24h [2]: 48.8 ng/mL and 139.6 ng/mL and 206.6 ng/mL
Cmax [2]: 283.7 ng/mL and 374.1 ng/mL
Tmax [2]: 0.0 h
AUC(0-24h) [3]: 1715 ng·h/mL and 1336 ng·h/mL and 1764 ng·h/mL and 2162 ng·h/mL
C24h [3]: 43.6 ng/mL and 54.9 ng/mL and 33.7 ng/mL and 55.2 ng/mL and 75 ng/mL
Cmax [3]: 121.1 ng/mL and 93.8 ng/mL and 102.3 ng/mL and 160.3 ng/mL
AUC(0-24h) [4]: 3871 ng·h/mL and 4832 ng·h/mL
Adjusted Half-Life [4]: 36.6 h
C24h [4]: 111.8 ng/mL and 194.5 ng/mL
Cmax [4]: 231.8 ng/mL and 220.7 ng/mL
Tmax [4]: 3.0 h
Adjusted Half-Life, Mean (DL2 40 mg/day oral, day 28, mean): 40.4 h
AUC(0-24h) [5]: 1953 ng·h/mL and 2836 ng·h/mL
C24h [5]: 72.2 ng/mL and 86.2 ng/mL
Cmax [5]: 109.0 ng/mL and 166.0 ng/mL
Tmax [5]: 24.0 h and 6.1 h
AUC(0-24h) [6]: 3432 ng·h/mL and 9961 ng·h/mL and 10846 ng·h/mL
Adjusted Half-Life [6]: 26.0 h and 76.2 h and 54.9 h
C24h [6]: 169.4 ng/mL and 521.2 ng/mL and 345.6 ng/mL
Cmax [6]: 199.6 ng/mL and 521.2 ng/mL and 531.1 ng/mL
Tmax [6]: 0.5 h and 24.0 h
Adjusted Half-Life, Mean (DL3 60 mg/day oral, day 28, mean): 52.4 h
AUC(0-24h) [7]: 4834 ng·h/mL and 5511 ng·h/mL
C24h [7]: 157 ng/mL and 175 ng/mL
Cmax [7]: 301 ng/mL and 324 ng/mL
Cmax (DL4 100 mg/day oral, day 28, individual patients, listed as Z-endoxifen HCl): 719 ng/mL
AUC(0-24h) [8]: 7200 ng·h/mL and 14650 ng·h/mL and 7425 ng·h/mL
C24h [8]: 209 ng/mL and 509 ng/mL and 216 ng/mL
Cmax [8]: 380 ng/mL and 957 ng/mL and 494 ng/mL
AUC(0-24h) [9]: 16591 ng·h/mL
Adjusted Half-Life [9]: 28.1 h
C24h [9]: 528 ng/mL
Cmax [9]: 1485 ng/mL and 881 ng/mL
Tmax [9]: 3.0 h
AUC(0-24h) [10]: 12520 ng·h/mL and 8804 ng·h/mL
C24h [10]: 457 ng/mL and 271 ng/mL
Cmax [10]: 299 ng/mL and 760 ng/mL and 492 ng/mL
AUC(0-24h) [11]: 16690 ng·h/mL and 52925 ng·h/mL and 22641 ng·h/mL
Adjusted Half-Life [11]: 61.6 h and 33.8 h
C24h [11]: 787 ng/mL and 1814 ng/mL and 606 ng/mL
Cmax [11]: 984 ng/mL and 2574 ng/mL and 1364 ng/mL
mean C24 h relative to the 5.9 ng/mL threshold associated with clinical benefit on tamoxifen (DL6, Day 28): more than 180 fold
AUC(0-24h) [12]: 15935 ng·h/mL and 10460 ng·h/mL and 11355 ng·h/mL and 13153 ng·h/mL and 13081 ng·h/mL and 24217 ng·h/mL and 16532 ng·h/mL
C24h [12]: 485 ng/mL and 345 ng/mL and 384 ng/mL and 467 ng/mL and 337 ng/mL and 687 ng/mL and 574 ng/mL
Cmax [12]: 825 ng/mL and 715 ng/mL and 887 ng/mL and 796 ng/mL and 1395 ng/mL and 1007 ng/mL
Tmax (DL8 360 mg oral, day 1, individual patients): 3.0 h
AUC(0-24h) [13]: 32079 ng·h/mL and 21926 ng·h/mL and 23576 ng·h/mL and 20747 ng·h/mL and 22520 ng·h/mL and 9274 ng·h/mL and 13704 ng·h/mL
C24h [13]: 1190 ng/mL and 722 ng/mL and 653 ng/mL and 801 ng/mL and 658 ng/mL and 213 ng/mL and 493 ng/mL
Cmax [13]: 1841 ng/mL and 1352 ng/mL and 1374 ng/mL and 1432 ng/mL and 1437 ng/mL and 780 ng/mL and 948 ng/mL
Tmax [13]: 3.0 h
Cmax, Mean (HCl salt, 360 mg oral, day 2 (after free base on day 1), mean of patients 35 and 36): 2360 ng/mL
AUC(0–24 h) (HCl salt, 360 mg oral, day 2 (after free base on day 1), patients 35 and 36 individually, listed as Z-endoxifen HCl): 23709 ng·h/mL and 59421 ng·h/mL
plasma concentration achieved by all patients (all dose levels): > 5.97 ng/mL
AUC(0–24h) dependence on dose (day 1, DL1-8): linear increase with dose
concentration at 24 h (human, plasma, oral, 20 mg, DL1, calculated from C24h in ng/mL, read-out: Plasma concentration 24 hours after the first dose): 67 nM
concentration at 28 day (human, plasma, oral, 20 mg, DL1, read-out: day 28 trough concentration, range): 48.8 to 207 ng/mL
concentration at 28 day (human, plasma, oral, 20 mg/day, DL1 (20 mg/day), day 28, read-out: average plasma concentration): 353 nM
concentration at 28 day (human, plasma, oral, 360 mg, DL8, if accumulation similar to lower dose levels, read-out: estimated day 28 concentration): 1220 ng/mL to 2970 ng/mL and 3.3 µM to 7.9 µM
concentration at 24 h (human, plasma, oral, 360 mg, DL8, calculated from C24h in ng/mL, read-out: Plasma concentration 24 hours after the first dose): 1810 nM
half-life (human, plasma, oral, range over dose levels, read-out: elimination half-life (t½)): 30.6 to 55.9 h
AUC(0-t) (human, plasma, po, 20 mg, DL1 20 mg oral, day 1, individual patients, read-out: AUC(0-24h)): 1030 ng·h/mL
concentration at 24 h (human, plasma, po, 20 mg, DL1 20 mg oral, day 1, individual patients, read-out: C24h): 25.2 ng/mL
Cmax (human, plasma, po, 20 mg, DL1 20 mg oral, day 1, individual patients, read-out: Cmax): 76.9 ng/mL
Tmax (human, plasma, po, 20 mg, DL1 20 mg oral, day 1, individual patients, read-out: Tmax): 3 h
AUC(0-t) (human, plasma, po, 20 mg, DL1 20 mg oral, day 1, mean, read-out: AUC(0-24h), Mean): 1080 ng·h/mL
concentration at 24 h (human, plasma, po, 20 mg, DL1 20 mg oral, day 1, mean, read-out: C24h, Mean): 30.2 ng/mL
Cmax (human, plasma, po, 20 mg, DL1 20 mg oral, day 1, mean, read-out: Cmax, Mean): 68.6 ng/mL
Tmax (human, plasma, po, 20 mg, DL1 20 mg oral, day 1, mean, read-out: Tmax, Mean): 3.7 h
AUC(0-t) (human, plasma, po, 20 mg/day, DL1 20 mg/day oral, day 28, individual patients, read-out: AUC(0-24h)): 2960 ng·h/mL
half-life (human, plasma, po, 20 mg/day, DL1 20 mg/day oral, day 28, individual patients, read-out: Adjusted Half-Life (converted)): 38.9 h
Cmax (human, plasma, po, 20 mg/day, DL1 20 mg/day oral, day 28, individual patients, read-out: Cmax): 201 ng/mL
AUC(0-t) (human, plasma, po, 20 mg/day, DL1 20 mg/day oral, day 28, mean, read-out: AUC(0-24h), Mean): 4250 ng·h/mL
half-life (human, plasma, po, 20 mg/day, DL1 20 mg/day oral, day 28, mean, read-out: Adjusted Half-Life, Mean (converted)): 55.9 h
concentration at 24 h (human, plasma, po, 20 mg/day, DL1 20 mg/day oral, day 28, mean, read-out: C24h, Mean): 132 ng/mL

From article PMC7899551, “Phase 1 study of Z-endoxifen in patients with advanced gynecologic, desmoid, and hormone receptor-positive solid tumors” (Oncotarget, 2021)
